In patent publication US9765039B2, “Biaryl derivatives as bromodomain inhibitors” (Zenith Epigenetics Ltd., priority 2012, dated 2017):

What was measured:
Brd4 bromodomain 1 = target: T1, Brd4 bromodomain 1 (Homo sapiens, UniProt O60885); test: Inhibition of tetra-acetylated histone H4 binding to BET bromodomains (TR-FRET); design: key: Active: Compounds with an IC50 value less than 30 μM were deemed to be active.; Not Active: Compounds with an IC50 value less than 30 μM were deemed to be active; settings: first bromodomain of Brd4, tetra-acetylated histone H4 peptide
T1 construct: made in house; host or cells: E. coli BL21(DE3)
How it was run: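 TR-FRET with N-terminally His-tagged bromodomains (200 nM, E. coli-expressed, Ni affinity and SEC-purified) and biotinylated tetra-acetylated histone H4 peptide (25–50 nM), detected with Eu-cryptate streptavidin and XL665 anti-His antibody. Buffer 30 mM HEPES pH 7.4, 320 mM KF, 0.08% BSA, 0.2% DMSO; 2 h RT. IC50 from decrease in 665/620 nm ratio.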

c-myc = test: Inhibition of c-myc expression in cancer cell lines (mRNA, real-time PCR); type: cell-based; design: key: Active: Compounds with an IC50 value less than 30 μM were deemed to be active; settings: Human AML MV4-11 cells, 3 hours
How it was run: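 MV4-11 cells (2.5×10^4) exposed to compound or 0.1% DMSO for 3 h at 37° C, then lysed for mRNA isolation. c-myc and cyclophilin cDNAs co-amplified by duplex RT real-time PCR. IC50 from dose-response curve.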

Human AML MV-4-11 cells = test: Inhibition of cell proliferation in cancer cell lines (CellTiter Aqueous One); type: cell-based; design: key: Active: Compounds with an IC50 value less than 30 μM were deemed to be active.; Not Active: Compounds with an IC50 value less than 30 μM were deemed to be active; settings: 72 hours
How it was run: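 Exponentially growing MV-4-11 cells were treated immediately with two-fold compound dilutions from 30 µM to 0.2 µM in triplicate for 72 h at 37 °C. Viability was read by MTS (CellTiter Aqueous One) absorbance at 490 nm after 3-4 h; % proliferation vs DMSO gave IC50.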

hIL-6 mRNA = test: Inhibition of hIL-6 mRNA transcription in LPS-stimulated U937 macrophages; type: cell-based, human; design: key: Active: Compounds with an IC50 value less than 30 μM are deemed to be active; settings: U937 differentiated into macrophages, 1 h pretreatment, lipopolysaccharide 3 h
How it was run: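 U937 cells differentiated 3 days with 60 ng/mL PMA, pretreated 1 h with compound, then stimulated with […] E. coli LPS for 3 h at 37° C. hIL-6 mRNA quantified by one-step real-time RT-PCR, Ct normalised to internal control and expressed as fold induction relative to control.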

hApoA-1 mRNA = test: Up-regulation of hApoA-1 mRNA transcription in Huh7 cells; type: cell-based, human; design: key: Active: Compounds with an EC170 value less than 30 μM are deemed to be active.; Not Active: Compounds with an EC170 value less than 30 μM are deemed to be active; settings: 48 hrs treatment, ApoA-I mRNA
Procedure: In this example, ApoA-I mRNA in tissue culture cells was quantitated to measure the transcriptional up-regulation of ApoA-I when treated with a compound of the present disclosure.
Huh7 cells ([…] per well) were plated in a 96-well plate using 100 μL DMEM per well, (Gibco DMEM supplemented with penicillin/streptomycin and 10% FBS), 24 h before the addition of the compound of interest. After 48 hrs treatment, the spent media was removed from the Huh-7 cells and placed on ice (for immediate use) or at −80° C. (for future use) with the “LDH cytotoxicity assay Kit II” from Abcam. The cells remaining in the plate were rinsed with 100 μL PBS.
Then 85 μL of cell lysis solution was added to each well and incubated for 5-10 minutes at room temperature, to allow for complete cell lysis and detachment. mRNA was then prepared using the “mRNA Catcher PLUS plate” from Life Technologies, according to the protocol supplied. After the last wash, as much wash buffer as possible was aspirated without allowing the wells to dry. Elution Buffer (E3, 80 μL) was then added to each well. mRNA was then eluted by incubating the mRNA Catcher PLUS plate with Elution Buffer for 5 minutes at 68° C., and then 1 minute at 4° C. Catcher plates with mRNA eluted were kept on ice for use or stored at −80° C.
The eluted mRNA isolated was then used in a one-step real-time PCR reaction, using components of the Ultra Sense Kit together with Life Technologies primer-probe mixes. Real-time PCR data was analyzed, using the Ct values, to determine the fold induction of each unknown sample, relative to the control (that is, relative to the control for each independent DMSO concentration).
Compounds with an EC170 value less than 30 μM are deemed to be active.

SMILES	FRET activity (IC50 < 30 μM) (Brd4 bromodomain 1)	c-myc activity (IC50 < 30 μM) (c-myc)	cell proliferation activity (IC50 < 30 μM) (Human AML MV-4-11 cells)	IL-6 activity (IC50 < 30 μM) (hIL-6 mRNA)	ApoA-1 Activity (EC170 < 30 μM) (hApoA-1 mRNA)	melting point
COc1cc(OC)c2c(=O)[nH]c(-c3ccc(OCCN4CCCC4)c(-c4ccc([S+](C)[O-])cc4)n3)nc2c1 (stereo not drawn) [Example 55, 5,7-Dimethoxy-2-(6-(4-(methylsulfinyl)phenyl)-5-(2-(pyrrolidin-1-yl)ethoxy)pyridin-2-yl)quinazolin-4(3H)-one]	Active	Not Active	Active	Active	Active	103 to 105 °C
COc1cc(OC)c2c(=O)[nH]c(-c3cccc(-c4ccc([S+](C)[O-])cc4)n3)nc2c1 (stereo not drawn) [Example 49, 5,7-Dimethoxy-2-(6-(4-(methylsulfinyl)phenyl)pyridin-2-yl)quinazolin-4(3H)-one]	Active	Not Active	Active	Active	Active	281 to 282 °C
COc1cc(OC)c2c(=O)[nH]c(-c3ccc(OCCO)c(-c4cccc([S+](C)[O-])c4)n3)nc2c1 (stereo not drawn) [Example 37, 2-(5-(2-Hydroxyethoxy)-6-(3-(methylsulfinyl)phenyl)pyridin-2-yl)-5,7-dimethoxyquinazolin-4(3H)-one]	Active	Active	Not Active	Active	Active	272 to 273 °C
COc1cc(OC)c2c(=O)[nH]c(-c3ccc(OCCNC(C)C)c(-c4ccc(S(C)(=O)=O)cc4C(F)(F)F)n3)nc2c1 [Example 46, 2-(5-(2-(Isopropylamino)ethoxy)-6-(4-(methylsulfonyl)-2-(trifluoromethyl)phenyl)pyridin-2-yl)-5,7-dimethoxyquinazolin-4(3H)-one]	Active	Active	Active	Active	Active	199 to 201 °C
COc1cc(OC)c2c(=O)[nH]c(-c3ccc(OCCO)c(-c4ccc(S(C)(=O)=O)cc4)n3)nc2c1 [Example 24, 2-(5-(2-Hydroxyethoxy)-6-(4-(methylsulfonyl)phenyl)pyridin-2-yl)-5,7-dimethoxyquinazolin-4(3H)-one]	Active	Not Active	Not Active	Active	Active	> 300 °C
COc1cc(OC)c2c(=O)[nH]c(-c3ccc(OCCNC(C)C)c(-c4ccc(C(=O)N(C)C)cc4)n3)nc2c1 [Example 26, 4-(6-(5,7-Dimethoxy-4-oxo-3,4-dihydroquinazolin-2-yl)-3-(2-(isopropylamino)ethoxy)pyridin-2-yl)-N,N-dimethylbenzamide]	Active	Active	Active	Active	Active	214 to 215 °C
COc1cc(OC)c2c(=O)[nH]c(-c3ccc(OCCN(C(=O)OC(C)(C)C)C(C)C)c(-c4ccc([S+](C)[O-])cc4)n3)nc2c1 (stereo not drawn) [Example 53, tert-Butyl (2-((6-(5,7-dimethoxy-4-oxo-3,4-dihydroquinazolin-2-yl)-2-(4-(methylsulfinyl)phenyl)pyridin-3-yl)oxy)ethyl)(isopropyl)carbamate]	Active	Not Active	Not Active	Not Active	Active	114 to 116 °C
COc1cc(OC)c2c(=O)[nH]c(-c3ccc(OC)c(-c4ccc(C(=O)N(C)C)cc4Cl)c3)nc2c1 [Example 59, 2-Chloro-5′-(5,7-dimethoxy-4-oxo-3,4-dihydroquinazolin-2-yl)-2′-methoxy-N,N-dimethyl-[1,1′-biphenyl]-4-carboxamide]	Active	Active	Not Active	Active	Active	> 300 °C
COc1cc(OC)c2c(=O)[nH]c(-c3cccc(-c4ccc(C(=O)N(C)C)cc4)n3)nc2c1 [Example 20, 4-(6-(5,7-Dimethoxy-4-oxo-3,4-dihydroquinazolin-2-yl)pyridin-2-yl)-N,N-dimethylbenzamide]	Active	Active	Not Active	Active	Active	217 to 219 °C
COc1cc(OC)c2c(=O)[nH]c(-c3ccc(OCCN4CCCC4)c(-c4ccc(S(C)(=O)=O)cc4)n3)nc2c1.Cl [Example 29, 5,7-Dimethoxy-2-(6-(4-(methylsulfonyl)phenyl)-5-(2-(pyrrolidin-1-yl)ethoxy)pyridin-2-yl)quinazolin-4(3H)-one hydrochloride]	Active	Active	Active	Active	Active	211 to 213 °C
COc1ccc2c(=O)[nH]c(-c3ccc(OCCNC(C)C)c(-c4ccc(S(C)(=O)=O)cc4)n3)nc2c1 [Example 67]	Active	Active	Active	Not Active	Active	204 to 205 °C
COc1cc(OC)c2c(=O)[nH]c(-c3ccc(OCCNC(C)C)c(-c4ccc(S(C)(=O)=O)cc4C)n3)nc2c1 [Example 45, 2-(5-(2-(Isopropylamino)ethoxy)-6-(2-methyl-4-(methylsulfonyl)phenyl)pyridin-2-yl)-5,7-dimethoxyquinazolin-4(3H)-one]	Active	Active	Active	Active	Active	202 to 203 °C
